According to US11174232B2, “Substituted heterocyclyl derivatives as CDK inhibitors” (Aurigene Discovery Technologies Limited, priority 2015, dated 2021):

Target: CDK7/CycH/MNAT1 (Homo sapiens (Human), UniProt P50613)
Experiment: Biochemical Assay for CDK7 (TR-FRET kinase assay)
Conditions: 60 min pre-incubation with kinase, 1 mM ATP; for % inhibition @ 10 μM / inhibition at 10 µM: 10 μM compound
Method: Biochemical Assay for CDK7:
The ability of compounds to inhibit CDK7 kinase activity was tested in a TR-FRET assay using 5 nM of CDK7/CycH/MNAT1 obtained from Invitrogen, USA. Test compounds were pre-incubated with the kinase at room temperature for 60 min. After the incubation, substrate mix [100 nM Ultra-light MBP (Perkin Elmer, USA) and 1 mM ATP (Sigma)] was added. The above reaction was stopped by the addition of 40 mM EDTA after 60 minutes of kinase reaction. 1 nM Eu-labelled antiphospho-MBP antibody [Perkin Elmer, USA] was added, mixed well and the fluorescence emission at 615 nm and 665 nm [excitation at 340 nm] was measured. The final DMSO concentration in the assay was 1%. For IC50 determination, appropriate concentrations were made by ⅓^rd serial dilutions of 10 mM DMSO stock solution of test compound. All the fluorescence measurements were made in a Victor 3 Multilabel Counter [Perkin Elmer, USA]. The IC50 was determined by fitting the dose response data to sigmoidal curve fitting equation using GraphPad Prism software V5. To identify compounds that inhibit CDK7 irreversibly, time depended inhibition studies were carried by pre-incubating compound with the enzyme at three time points (20, 60 and 180 min) and carrying out assay as described above.
The compounds were screened by the above mentioned assay procedure.

Sequence of CDK7/CycH/MNAT1 (P50613 whole entry): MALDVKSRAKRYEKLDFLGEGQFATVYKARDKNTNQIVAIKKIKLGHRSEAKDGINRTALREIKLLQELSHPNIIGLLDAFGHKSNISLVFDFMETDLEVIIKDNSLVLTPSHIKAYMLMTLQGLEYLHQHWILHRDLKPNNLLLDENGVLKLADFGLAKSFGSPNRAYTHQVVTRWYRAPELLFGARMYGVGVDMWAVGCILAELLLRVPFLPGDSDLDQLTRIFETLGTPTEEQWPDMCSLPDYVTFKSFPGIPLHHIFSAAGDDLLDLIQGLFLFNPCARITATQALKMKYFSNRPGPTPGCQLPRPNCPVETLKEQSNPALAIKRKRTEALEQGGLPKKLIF
Sequence of CDK7/CycH/MNAT1 (P51946 whole entry partner): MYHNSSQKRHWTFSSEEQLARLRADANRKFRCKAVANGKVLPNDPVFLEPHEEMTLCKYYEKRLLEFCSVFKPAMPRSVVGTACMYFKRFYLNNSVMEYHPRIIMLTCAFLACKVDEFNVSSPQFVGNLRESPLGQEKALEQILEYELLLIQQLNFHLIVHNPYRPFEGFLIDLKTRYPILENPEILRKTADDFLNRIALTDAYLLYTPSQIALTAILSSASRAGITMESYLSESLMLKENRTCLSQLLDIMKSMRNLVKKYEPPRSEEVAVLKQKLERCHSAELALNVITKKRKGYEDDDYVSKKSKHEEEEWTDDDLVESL
Sequence of CDK7/CycH/MNAT1 (P51948 whole entry partner): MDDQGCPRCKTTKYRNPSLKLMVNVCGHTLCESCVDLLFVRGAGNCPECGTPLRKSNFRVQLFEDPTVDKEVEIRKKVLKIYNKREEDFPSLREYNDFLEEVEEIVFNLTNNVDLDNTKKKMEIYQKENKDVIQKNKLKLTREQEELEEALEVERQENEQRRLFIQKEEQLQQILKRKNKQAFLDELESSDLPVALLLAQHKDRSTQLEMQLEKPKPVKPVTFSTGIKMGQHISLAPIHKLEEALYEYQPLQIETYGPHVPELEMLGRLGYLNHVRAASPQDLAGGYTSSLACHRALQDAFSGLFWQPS

SMILES | % inhibition @ 10 μM | IC50 | inhibition at 10 µM
CC(C(=O)Nc1cc(C2CC2)[nH]n1)c1cccc(-c2ccc(NC(=O)/C=C/CN(C)C)cc2)c1 (single isomer, unassigned) [Compound 2, (E)-N-(3′-(1-((5-cyclopropyl-1H-pyrazol-3-yl)amino)-1-oxopropan-2-yl)-[1,1′-biphenyl]-4-yl)-4-(dimethylamino)but-2-enamide] | 69% | > 100 nM | 
CC(C(=O)Nc1cc(C2CC2)[nH]n1)c1cccc(-c2ccc(NC(=O)/C=C/CN(C)C)cc2)c1 (single isomer, unassigned) [Compound 3, (E)-N-(3′-(1-((5-cyclopropyl-1H-pyrazol-3-yl)amino)-1-oxopropan-2-yl)-[1,1′-biphenyl]-4-yl)-4-(dimethylamino)but-2-enamide] | 99% | 25 to 100 nM | 
CC(C(=O)Nc1cc(C2CC2)[nH]n1)c1cccc(-c2ccc(NC(=O)/C=C/CN3CCOCC3)nc2)c1 (single isomer, unassigned) [Compound 11, (E)-N-(5-(3-(1-((5-cyclopropyl-1H-pyrazol-3-yl)amino)-1-oxopropan-2-yl)phenyl)pyridin-2-yl)-4-morpholinobut-2-enamide] | 75% | > 100 nM | 
CC(C(=O)Nc1cc(C2CC2)[nH]n1)c1cccc(-c2ccc(NC(=O)/C=C/CN3CCOCC3)nc2)c1 (single isomer, unassigned) [Compound 12, (E)-N-(5-(3-(1-((5-cyclopropyl-1H-pyrazol-3-yl)amino)-1-oxopropan-2-yl)phenyl)pyridin-2-yl)-4-morpholinobut-2-enamide] | 98% | < 25 nM | 
C=CC(=O)Nc1ccc(-c2cccc(C(C)C(=O)Nc3cc(C4CC4)[nH]n3)c2)cn1 (single isomer, unassigned) [Compound 21, N-(5-(3-(1-((5-cyclopropyl-1H-pyrazol-3-yl)amino)-1-oxopropan-2-yl)phenyl)pyridin-2-yl)acrylamide] |  | > 100 nM | 89%
C=CC(=O)Nc1ccc(-c2cccc(C(C)C(=O)Nc3cc(C4CC4)[nH]n3)c2)cn1 (single isomer, unassigned) [Compound 22, N-(5-(3-(1-((5-cyclopropyl-1H-pyrazol-3-yl)amino)-1-oxopropan-2-yl)phenyl)pyridin-2-yl)acrylamide] | 97% | < 25 nM | 
CC(C(=O)Nc1cc(C2CC2)[nH]n1)c1cccc(-c2ccc(NC(=O)/C=C/CN3CC[C@H](F)C3)nc2)c1 (single isomer, unassigned) [Compound 47] |  | < 25 nM | 91%
CC(C(=O)Nc1cc(C2CC2)[nH]n1)c1cccc(-c2ccc(NC(=O)/C=C/CN3CC[C@H](F)C3)nc2)c1 (single isomer, unassigned) [Compound 48] | 90% | 25 to 100 nM | 
CC(C(=O)Nc1cc(C2CC2)[nH]n1)c1cccc(-c2ccc(NC(=O)/C=C/CN3CC[C@@H](F)C3)nc2)c1 (single isomer, unassigned) [Compound 50] |  | < 25 nM | 94%
CC(C(=O)Nc1cc(C2CC2)[nH]n1)c1cccc(-c2ccc(NC(=O)/C=C/CN3CC[C@@H](F)C3)nc2)c1 (single isomer, unassigned) [Compound 51] | 90% | > 100 nM | 
CC(C(=O)Nc1cc(C2CC2)[nH]n1)c1cccc(-c2ccc(NC(=O)/C=C/CN3CCCC3)nc2)c1 (single isomer, unassigned) [Compound 53, (E)-N-(5-(3-(1-((5-cyclopropyl-1H-pyrazol-3-yl)amino)-1-oxopropan-2-yl)-phenyl)pyridin-2-yl)-4-(pyrrolidin-1-yl)but-2-enamide] | 100% | < 25 nM | 
CC(C(=O)Nc1cc(C2CC2)[nH]n1)c1cccc(-c2ccc(NC(=O)/C=C/CN3CCCC3)nc2)c1 (single isomer, unassigned) [Compound 54, (E)-N-(5-(3-(1-((5-cyclopropyl-1H-pyrazol-3-yl)amino)-1-oxopropan-2-yl)-phenyl)pyridin-2-yl)-4-(pyrrolidin-1-yl)but-2-enamide] | 78% | < 25 nM | 
COC[C@@H]1CCCN1C/C=C/C(=O)Nc1ccc(-c2cccc(C(C)C(=O)Nc3cc(C4CC4)[nH]n3)c2)cn1 (single isomer, unassigned) [Compound 71] |  | > 100 nM | 81%
COC[C@@H]1CCCN1C/C=C/C(=O)Nc1ccc(-c2cccc(C(C)C(=O)Nc3cc(C4CC4)[nH]n3)c2)cn1 (single isomer, unassigned) [Compound 72] | 98% | < 25 nM | 
CC(C(=O)Nc1cc(C2CC2)[nH]n1)c1cccc(-c2ccc(NC(=O)/C=C/CN(C)C)cc2)c1 (centres unmarked) [Compound 1, (E)-N-(3′-(1-((5-cyclopropyl-1H-pyrazol-3-yl)amino)-1-oxopropan-2-yl)-[1,1′-biphenyl]-4-yl)-4-(dimethylamino)but-2-enamide] |  | 25 to 100 nM | 92%
CC(C(=O)Nc1cc(C2CC2)[nH]n1)c1ccc(F)c(-c2ccc(NC(=O)/C=C/CN(C)C)cc2)c1 (centres unmarked) [Compound 4, (E)-N-(5′-(1-((5-cyclopropyl-1H-pyrazol-3-yl)amino)-1-oxopropan-2-yl)-2′-fluoro-[1,1′-biphenyl]-4-yl)-4-(dimethylamino)but-2-enamide] |  | > 100 nM | 95%
CC(C(=O)Nc1cc(C2CC2)[nH]n1)c1cc(-c2ccc(NC(=O)/C=C/CN(C)C)cc2)ccc1F (centres unmarked) [Compound 5, (E)-N-(3′-(1-((5-cyclopropyl-1H-pyrazol-3-yl)amino)-1-oxopropan-2-yl)-4′-fluoro-[1,1′-biphenyl]-4-yl)-4-(dimethylamino)but-2-enamide] |  | > 100 nM | 80%
CC(C(=O)Nc1cc(C2CC2)n(C)n1)c1cccc(-c2ccc(NC(=O)/C=C/CN(C)C)cc2)c1 (centres unmarked) [Compound 6, (E)-N-(3′-(1-((5-cyclopropyl-1-methyl-1H-pyrazol-3-yl)amino)-1-oxopropan-2-yl)-[1,1′-biphenyl]-4-yl)-4-(dimethylamino)but-2-enamide] |  |  | 0%
CN(C)C/C=C/C(=O)Nc1ccc(-c2cccc(CC(=O)Nc3cc(C4CC4)[nH]n3)c2)cc1 [Compound 7, (E)-N-(3′-(2-((5-cyclopropyl-1H-pyrazol-3-yl)amino)-2-oxoethyl)-[1,1′-biphenyl]-4-yl)-4-(dimethylamino)but-2-enamide] |  | > 100 nM | 84%
CCc1cc(NC(=O)C(C)c2cccc(-c3ccc(NC(=O)/C=C/CN(C)C)cc3)c2)n[nH]1 (centres unmarked) [Compound 8, (E)-4-(dimethylamino)-N-(3′-(1-((5-ethyl-1H-pyrazol-3-yl)amino)-1-oxopropan-2-yl)-[1,1′-biphenyl]-4-yl)but-2-enamide] |  | > 100 nM | 92%
CC(C(=O)Nc1cc(C(C)(C)C)[nH]n1)c1cccc(-c2ccc(NC(=O)/C=C/CN(C)C)cc2)c1 (centres unmarked) [Compound 9, (E)-N-(3′-(1-((5-(tert-butyl)-1H-pyrazol-3-yl)amino)-1-oxopropan-2-yl)-[1,1′-biphenyl]-4-yl)-4-(dimethylamino)but-2-enamide] |  | > 100 nM | 60%
CC(C(=O)Nc1cc(C2CC2)[nH]n1)c1cccc(-c2ccc(NC(=O)/C=C/CN3CCOCC3)nc2)c1 (centres unmarked) [Compound 10, (E)-N-(5-(3-(1-((5-cyclopropyl-1H-pyrazol-3-yl)amino)-1-oxopropan-2-yl)phenyl)pyridin-2-yl)-4-morpholinobut-2-enamide] |  | < 25 nM | 99%
CCC(C(=O)Nc1cc(C2CC2)[nH]n1)c1cccc(-c2ccc(NC(=O)/C=C/CN(C)C)cc2)c1 (centres unmarked) [Compound 13, (E)-N-(3′-(1-((5-cyclopropyl-1H-pyrazol-3-yl)amino)-1-oxobutan-2-yl)-[1,1′-biphenyl]-4-yl)-4-(dimethylamino)but-2-enamide] |  | 25 to 100 nM | 97%
CC(C(=O)Nc1cc(C2CC2)[nH]n1)c1cccc(-c2ccc(NC(=O)/C=C/CN(C)C)c(F)c2)c1 (centres unmarked) [Compound 14, (E)-N-(3′-(1-((5-cyclopropyl-1H-pyrazol-3-yl)amino)-1-oxopropan-2-yl)-3-fluoro-[1,1′-biphenyl]-4-yl)-4-(dimethylamino)but-2-enamide] |  | > 100 nM | 95%
CC(C(=O)Nc1cc(C2CCC2)[nH]n1)c1cccc(-c2ccc(NC(=O)/C=C/CN(C)C)cc2)c1 (centres unmarked) [Compound 15, (E)-N-(3′-(1-((5-cyclobutyl-1H-pyrazol-3-yl)amino)-1-oxopropan-2-yl)-[1,1′-biphenyl]-4-yl)-4-(dimethylamino)but-2-enamide] |  | < 25 nM | 93%
CC(C(=O)Nc1cc(C2CC2)[nH]n1)c1cccc(-c2ccc(NC(=O)/C=C/CN(C)C)cn2)c1 (centres unmarked) [Compound 16, (E)-N-(6-(3-(1-((5-cyclopropyl-1H-pyrazol-3-yl)amino)-1-oxopropan-2-yl)phenyl)pyridin-3-yl)-4-(dimethylamino)but-2-enamide] |  | 25 to 100 nM | 95%
CC(C(=O)Nc1cc(C2CC2)[nH]n1)c1cccc(-c2ccc(NC(=O)/C=C/CN(C)C)cc2F)c1 (centres unmarked) [Compound 17, (E)-N-(3′-(1-((5-cyclopropyl-1H-pyrazol-3-yl)amino)-1-oxopropan-2-yl)-2-fluoro-[1,1′-biphenyl]-4-yl)-4-(dimethylamino)but-2-enamide] |  | > 100 nM | 80%
